The source of these data is patent US20210283139A1, “BIFUNCTIONAL MOLECULES FOR TARGETING UCHL5” (AMPHISTA THERAPEUTICS LTD, priority 2018, published 2021).

Bounds are passed on as bounds.

Common to all, as to format: cell-based
The target in assay [1] is T1, Brd4 (Homo sapiens, UniProt O60885).
T1 construct: endogenous in cells; host or cells: HEK293, HAP1, MV4-11
As to the kind of experiment: Mechanistic evaluation of Brd4 degradation in HAP1 cells (bortezomib, degrasyn or I-BET726 pre-treatment). As to conditions: 6 h. As to the method: (§1) Immunoblotting. proteins were separated by SDS-PAGE on NuPage 4-12% Bis-Tris gels, followed by transfer to Amersham Protran 0.45 NC nitrocellulose membrane (GE Healthcare) using wet transfer. Membranes were blocked using 5% w/v milk in Tris-buffered saline (TBS) with 0.1% Tween-20. Blots were probed (overnight at 4° C.) using anti-Brd2 (Abcam ab139690, 1:2,000 dilution), anti-Brd3 (Abcam ab50818, 1:500 dilution), and anti-Brd4 (Abcam ab128874, 1:1,000 dilution) primary antibodies, as appropriate. The next day, blots were washed with TBST and incubated (1 hr at RT) with anti-Tubulin hFAB-rhodamine (BioRad, 12004166) primary antibody, and either anti-rabbit IRDye 800CW (Licor 1:10,000 dilution) or anti-mouse IRDye 800CW (Licor 1:10,000 dilution) secondary antibody. Blots were developed using a Bio-Rad ChemiDoc MP Imaging System, and band quantification was performed using Image Studio software (LiCor). Band intensities were normalized to the tubulin loading control and reported as % of the average 0.1% DMSO vehicle intensity. Degradation data was plotted and analysed using Prism (Graphpad, version 8).
(§2) HAP1 (1×10^6) cells were seeded in standard 6-well plates (2 mL medium) overnight before pre-treatment with inhibitors (10 μM bortezomib, 5 μM degrasyn or 1 μM I-BET726). After a 0.5 h pre-incubation time, cells were subsequently treated with vehicle, 0.1 μM MZ1 or 0.1 μM 05IB9, yielding a final overall DMSO concentration of 0.2% v/v. After 6 h incubation, cells were washed with DPBS (Gibco) and lysed using 85 μL RIPA buffer (Sigma-Aldrich) supplemented with cOmplete Mini EDTA-free protease inhibitor cocktail (Roche) and benzonase. Lysates were clarified by centrifugation (20,000 g, 10 min, 4° C.) and the total protein content of the supernatant was quantified using a Bradford colorimetric assay. Samples were prepared using equal amounts of total protein and LDS sample buffer (Invitrogen).
Representative blots from HAP1 lysates in FIG. 9 show depletion of Brd4 protein levels following 6 h treatment with 0.1 μM 05IB9 or MZ1, in the presence and absence of 5 μM degrasyn and 10 μM bortezomib. Brd4 band intensities were normalized to β-tubulin loading control and reported in FIG. 9B as % of the average 0.1% DMSO vehicle intensity. Each bar is mean±SEM of three independent experiments performed in duplicate (n=3). […] Furthermore, excess […] competes with 05IB9, resulting in reduced degradation of Brd4.

Assay [2] concerns the target T1, Brd4. Briefly: Mechanistic evaluation of Brd4 degradation in HEK293 cells (degrasyn or I-BET726 pre-treatment). As to conditions: 6 h. The method, then:
as §1
as §2, with “HEK293” for “HAP1”, “(5” for “(10 μM bortezomib, 5”

Assay [3] deals with T1, Brd4. As to the kind of experiment: Proteasome dependency of Brd4 degradation in HEK293 cells (bortezomib pre-treatment). As to conditions: HEK293, 1 μM, 6 h. The method, then:
as §1
as §2, with “HEK293” for “HAP1”, “10” for “inhibitors (10”, “bortezomib.” for “bortezomib, 5 μM degrasyn or 1 μM I-BET726).”, “1” for “0.1”, “05IB6,” for “05IB9,”

Assay [4] deals with T2, Brd2 (Homo sapiens, UniProt P25440). As to the kind of experiment: Concentration-dependent BET degradation, immunoblot, HeLa cells. As to conditions: Brd2, 6 h treatment, 1 nM-10 μM, read-out: Dmax (%) maximum degradation observed. On the set-up: endogenous in cells; host or cells: HeLa. As to the method: (§3) Cell culture. HeLa (CCL-2) and HEK293 (CRL-1573) cells were purchased from ATCC and cultured in DMEM medium (Gibco) supplemented with 10% FBS, 100 μg/mL penicillin/streptomycin and L-glutamine. Cells were grown at 37° C. and 5% CO2, and were kept no longer than 30 passages. All cell lines were routinely tested for mycoplasma contamination using MycoAlert kit from Lonza.
T2 sequence (P25440 whole entry): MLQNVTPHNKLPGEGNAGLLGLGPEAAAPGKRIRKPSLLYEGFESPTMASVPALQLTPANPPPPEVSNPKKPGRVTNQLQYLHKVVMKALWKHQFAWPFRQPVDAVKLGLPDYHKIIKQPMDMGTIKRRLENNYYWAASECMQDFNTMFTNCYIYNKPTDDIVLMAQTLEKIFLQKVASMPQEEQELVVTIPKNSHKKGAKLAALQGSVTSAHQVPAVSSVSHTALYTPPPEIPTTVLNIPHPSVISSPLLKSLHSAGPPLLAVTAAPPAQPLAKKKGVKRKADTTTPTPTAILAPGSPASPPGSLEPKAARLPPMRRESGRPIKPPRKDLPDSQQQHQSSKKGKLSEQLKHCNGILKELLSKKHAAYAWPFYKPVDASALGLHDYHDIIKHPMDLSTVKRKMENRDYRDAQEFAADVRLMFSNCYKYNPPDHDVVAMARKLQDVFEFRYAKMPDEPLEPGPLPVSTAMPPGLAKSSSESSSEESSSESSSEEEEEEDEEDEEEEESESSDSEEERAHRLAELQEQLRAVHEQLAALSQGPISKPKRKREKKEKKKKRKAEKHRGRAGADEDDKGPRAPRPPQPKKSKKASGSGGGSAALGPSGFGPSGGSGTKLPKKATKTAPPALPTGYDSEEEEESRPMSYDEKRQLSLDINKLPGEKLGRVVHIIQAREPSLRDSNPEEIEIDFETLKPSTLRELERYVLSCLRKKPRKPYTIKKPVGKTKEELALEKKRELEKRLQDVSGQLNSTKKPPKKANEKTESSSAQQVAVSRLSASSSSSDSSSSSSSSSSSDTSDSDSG
as §1
(§4) HeLa (5×10^5) and HEK293 (1×10^6) cells were seeded in standard 6-well plates (2 mL medium) overnight before treatment with compounds at the desired concentration (1 nM-10 μM), with a final DMSO concentration of 0.1% v/v. After 6 h treatment time, cells were washed with DPBS (Gibco) and lysed using 85 μL RIPA buffer (Sigma-Aldrich) supplemented with cOmplete Mini EDTA-free protease inhibitor cocktail (Roche) and benzonase. Lysates were clarified by centrifugation (20,000g, 10 min, 4° C.) and the total protein content of the supernatant was quantified using a Bradford colorimetric assay. Samples were prepared using equal amounts of total protein and LDS sample buffer (Invitrogen.
(§5) Representative blots in FIG. 3 show depletion of Brd2, Brd3 and Brd4 protein levels following treatment with increasing concentrations of representative compounds. Band intensities were normalized to the β-tubulin loading control and reported as % of the average 0.1% DMSO vehicle intensity, with each point representing mean±SEM of two independent experiments (n=2). Degradation data was plotted and analysed using Prism (Graphpad, version 8)
On the technique in general: A western blot detects proteins with antibodies after separation by electrophoresis.

For assay [5], the target named is T3, Brd3 (Homo sapiens, UniProt Q15059). The assay is described as above. On the set-up: endogenous in cells; host or cells: HeLa. As to conditions: Brd3, 6 h treatment, 1 nM-10 μM. As to the method:
as §3, §1, §4, §5

Assay [6] addresses T1, Brd4. Briefly: Negative SAR: Brd4 immunoblot in HEK293 cells, active vs negative control. As to conditions: HEK293, 1 μM, 6 h, three independent treatments. The method, then:
as §1
HEK293 (1×10^6) cells incubated with DMSO, 1 μM 05IB11 or 1 μM 05IB6 for 6 h with a final DMSO concentration of 0.1% v/v. Cells from three independent treatments (n=3) were lysed with RIPA buffer and immunoblotted for Brd4 and β-tubulin.

The target of assay [7] is T4, Brd4 (S) (Homo sapiens, UniProt O60885).
T4 construct: endogenous in cells; host or cells: HEK293, HeLa
As to the kind of experiment: Concentration-dependent BET degradation, immunoblot, HeLa cells. As to conditions: 6 h treatment, 1 nM-10 μM, read-out: Dmax (%) maximum degradation observed. As to the method:
as §3, §1, §4, §5

In assay [8] the target is T5, Brd4 (L) (Homo sapiens, UniProt O60885).
T5 construct: endogenous in cells; host or cells: HEK293, HeLa
The description is as above. Conditions: 6 h treatment, 1 nM-10 μM, read-out: Dmax (%) maximum degradation observed. The method, then: as §3, §1, §4, §5

For assay [9], the target named is T2, Brd2. Briefly: Concentration-dependent BET degradation, immunoblot, HEK293 cells. As to conditions: HEK293, Brd2, 6 h treatment, 1 nM-10 μM; read-out: Dmax (%) maximum degradation observed. Also on record: endogenous in cells; host or cells: HEK293. The method, then:
as §3, §1, §4, §5

Assay [10] deals with T3, Brd3. The assay is described as above. On the set-up: endogenous in cells; host or cells: HEK293. Conditions: HEK293, Brd3, 6 h treatment, 1 nM-10 μM. The method, then:
as §3, §1, §4, §5

In assay [11] the target is T4, Brd4 (S). The assay is described as above. Conditions: 6 h treatment, 1 nM-10 μM, read-out: Dmax (%) maximum degradation observed. As to the method: as §3, §1, §4, §5
Assay [12] concerns the target T5, Brd4 (L). Described as above. Conditions: 6 h treatment, 1 nM-10 μM, read-out: Dmax (%) maximum degradation observed. The method, then:
as §3, §1, §4, §5

[13] abbreviates: read-out: Dmax (%) maximum degradation observed.

T3 sequence (Q15059 whole entry): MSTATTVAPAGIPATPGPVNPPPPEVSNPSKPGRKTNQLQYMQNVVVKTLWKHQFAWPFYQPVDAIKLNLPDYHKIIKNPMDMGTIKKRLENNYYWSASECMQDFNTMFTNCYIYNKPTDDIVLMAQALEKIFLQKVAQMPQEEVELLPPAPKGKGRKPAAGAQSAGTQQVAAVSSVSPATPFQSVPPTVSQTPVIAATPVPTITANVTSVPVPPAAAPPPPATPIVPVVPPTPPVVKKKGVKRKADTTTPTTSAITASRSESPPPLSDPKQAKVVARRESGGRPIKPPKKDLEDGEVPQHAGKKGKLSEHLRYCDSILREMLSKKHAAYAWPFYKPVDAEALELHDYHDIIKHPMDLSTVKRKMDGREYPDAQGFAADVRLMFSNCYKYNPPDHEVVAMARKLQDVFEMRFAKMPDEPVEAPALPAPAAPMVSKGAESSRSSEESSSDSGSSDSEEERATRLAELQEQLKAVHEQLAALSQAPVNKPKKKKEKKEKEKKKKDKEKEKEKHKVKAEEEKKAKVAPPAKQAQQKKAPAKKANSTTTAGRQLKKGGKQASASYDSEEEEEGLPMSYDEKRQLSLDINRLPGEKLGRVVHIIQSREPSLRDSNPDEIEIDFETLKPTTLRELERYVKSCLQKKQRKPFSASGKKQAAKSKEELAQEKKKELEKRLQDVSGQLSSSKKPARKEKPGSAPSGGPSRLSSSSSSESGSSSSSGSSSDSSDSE

Turning to `Cc1ncsc1-c1ccc(CNC(=O)[C@@H]2C[C@@H](O)CN2C(=O)[C@@H](NC(=O)COCCOCCOCCNC(=O)C[C@@H]2N=C(c3ccc(Cl)cc3)c3c(sc(C)c3C)-n3c(C)nnc32)C(C)(C)C)cc1` [MZ1, reference compound], the “Brd4 degradation in the presence of bortezomib or degrasyn” value at Brd4 [1] (HAP1, 0.1 μM compound, 0.5 h pre-treatment with 10 μM bortezomib or 5 μM degrasyn) is given as “only blocked by bortezomib”. In addition, the Brd4 protein levels entry at Brd4 [1] (HAP1, 0.1 μM) was “depletion”; at Brd4 [2] (HEK293, 0.1 μM), “depletion”; at Brd4 [3] it was “depletion”. The “Brd4 degradation in the presence of degrasyn or I-BET726” value at Brd4 [2] (HEK293, 0.1 μM compound, 0.5 h pre-treatment with 5 μM degrasyn or 1 μM I-BET726) is listed as “only blocked by I-BET726”.
Broadly, the Dmax is the greatest extent of degradation seen. The DC50 is the concentration at which degradation of the target reaches its halfway point. For `CCCC(NC(=O)/C=C/c1cccc(Br)n1)c1ccc(OCCOCCOCCOCCOCCOCCOCCNC(=O)c2ccc(-c3ccc4c(c3)[C@H](Nc3ccc(Cl)cc3)C[C@H](C)N4C(C)=O)cc2)cc1` (stereo partly shown) [Example 05IB11], the Dmax is not above 25% on Brd2 [4]; 26 to 50% at Brd3 [5] (setting [13]); not above 25% on Brd4 (S) [7]; not above 25% at Brd4 (L) [8]; not above 25% at Brd2 [9]; not above 25% on Brd3 [10] (setting [13]). Further, the Dmax is 26 to 50% on Brd4 (S) [11] and not above 25% on Brd4 (L) [12]. Besides, the DC50 on Brd3 [5] was 51 to 500 nM; on Brd3 [10], not above 50 nM. In addition, the Brd4 levels result at Brd4 [6] was “minimal depletion”.
